Test results: US20250338846A1, “COMPOSITIONS HAVING PESTICIDAL UTILITY AND PROCESSES RELATED THERETO” (CORTEVA AGRISCIENCE, LLC, priority 2022, published 2025)
“And” between values parts separate entries of the source, which are not always exact repeats. Equal values may be shown once.

How the values were obtained:
[1] = system: Cotton Aphid (Aphis gossypii, APHIGO); test: Bioassay 7: Cotton Aphid, foliar spray on infested cotton seedlings, live aphids counted three days after treatment; assay type: in vivo
[2] = system: Sweet Potato Whitefly (Bemisia tabaci, BEMITA); test: Bioassay 8: Sweet Potato Whitefly, spray on cotton seedlings at crawler emergence, nymphs counted 7-9 days after treatment; assay type: in vivo; conditions: F1 alone 0.8 (10^-5) Wt %

SMILES: CCN(C(=O)CCS(C)(=O)=O)c1sc(-c2cccnc2)nc1Cl [Formula F1, N-(4-chloro-2-(pyridin-3-yl)thiazol-5-yl)-N-ethyl-3-(methylsulfonyl)propanamide]
- Average % Control F1 ([1]; F1 alone 0.1 (10^-5) Wt %): 24.39%
- Average % Control F1 ([1]; F1 alone 0.2 (10^-5) Wt %): 5.79%
- Average % Control F1 ([1]; F1 alone 0.78 (10^-5) Wt %): 25.58%
- Average % Control F1 ([1]; F1 alone 0.8 (10^-5) Wt %): 24.39% and 47.56%
- Average % Control F1 ([1]; F1 alone 2.5 (10^-5) Wt %): 29.04%
- Average % Control F1 [2]: 74.86%
